From patent US10226509B2, “Lymphangiogenesis inhibitors for cancer and for graft survival” (TUFTS UNIVERSITY, priority 2014, dated 2019)

How the values were obtained:
[1] = tested on: VEGF-C-induced LEC sprouting; test: LEC sprouting assay: VEGF-C-induced sprouting; format: cell-based, human
Protocol: LEC spheroids were generated by seeding primary LECs at passage 4 or 5 in each well of 384-well hanging-drop plates (3D Biomatrix) in complete EGM-2 MV medium containing 0.25% methyl cellulose according to the manufacturer's instructions (750 cells/well). After 18 hours, LEC spheroids were collected, resuspended in serum-free EBM-2 basal medium, and mixed with collagen solution (PureCol collagen, Advanced BioMatrix, 2.2 mg/ml in M199 medium, pH adjusted to 7.4 with NaHCO3 and NaOH). Aliquots of the LEC spheroid/collagen mixture (250 μl/well of 48-well plate) were incubated in the presence or absence of various test agents for 24 hr. At the end of the incubation period, spheroids were stained with Calcein AM (Invitrogen, 1 μg/mL, 37° C., and 30 min). Fluorescent images were acquired using the EVOS FL cell imaging system, pixels were inverted for better visualization and cumulative length of each sprout was calculated. Results were expressed as fold change compared to corresponding controls. It was observed that sprout lengths vary from passages to passages. Test agents used included thiodigalactoside (10 to 50 mM, Carbosynth), 3′-sialyl lactose (2 to 10 mM, Carbosynth), 6′-sialyl lactose (2 to 10 mM, Carbosynth), LY294002 (20 μM, Abeam), U0126 (20 μM, Abeam), PD0325901 (1 μM, Selleckchem), human VEGFR-3-Fc chimera (10 μg/ml, R&D), human VEGFR-2-Fc chimera (10 μg/ml, R&D), Avastin (10 μg/ml, bevacizumab, Genentech/Roche), human control IgG (10 μg/ml, Southern Biotech), anti-human podoplanin functional grade antibody (10 μg/ml, eBioscience), and rat IgG2a κ isotype control functional grade antibody (10 μg/ml, eBioscience).
In this assay, the LEC spheroids were treated with VEGF-C (50 ng/ml) in the presence or absence of 0.75 μM of Gal-8 for 24 hours, and then accumulated sprout lengths were quantified. […] Synergistic effect of Gal-8 on VEGF-C-induced LEC sprouting was dose-dependent. […] At concentrations >0.5 μM Gal-8, there was no further increase in the degree of VEGF-C-induced lymphangiogenesis (FIG. 4C).
To further characterize the role of carbohydrate-mediated recognition in VEGF-C-induced lymphangiogenesis, LEC spheroids were stimulated with VEGF-C (50 ng/ml) in the presence or absence of three different galectin inhibitors. […] Therefore, the data establishes the critical role of Gal-8-mediated carbohydrate-mediated recognition in VEGF-C-induced lymphangiogenesis.

mouse corneas = test: Corneal mouse micropocket lymphangiogenesis assay; format: in vivo; conditions: for mean lymphatic vessel areas: 160 ng pellet, seven days
Protocol: The corneal micropocket lymphangiogenesis assay was performed using implants containing a test agent, hydron (polyhydroxylmethylmethacrylate), and sucralfate (Cao, R., et al. 2011. Nat Protoc 6:817-826; Rogers, M. S., et al. 2007. Nat Protoc 2:2545-2550). Test agents included full-length Gal-8 (40-320 ng/pellet) and VEGF-C (160 ng/pellet). Implants containing hydron and sucralfate alone served as negative controls. The mice were anesthetized by intraperitoneal injection of a mixture of ketamine (90-120 mg/kg) and xylazine (10 mg/kg). The eyes were topically anesthetized with proparacaine and were gently proptosed (forwardly displaced) with forceps. Using a corneal blade and a stereoscope, intrastromal linear keratotomy was performed about 2 mm from the limbus. Using a von Graefe knife (Miltex), a pocket was extended towards the limbus, and the pellet was maneuvered into the pocket. The wound was coated with a veterinary ophthalmic ointment (Akorn) to prevent infection. Mouse corneas were harvested 7 days after pellet implantation, fixed in 4% paraformaldehyde/PBS (1 hour at 4° C.), washed with PBS, and fixed again in iced acetone (15 min at −20° C.). To quantitate the extent of lymphangiogenesis in Prox-1-EGFP reporter mice, flat mounts of the dissected corneas were evaluated by fluorescence microscopy. Fluorescent images were acquired by EVOS FL cell imaging system (Invitrogen), and vessel areas were calculated using the formula (Rogers, M. S., et al. 2007. Nat Protoc 2:2545-2550): vessel area=pellet distance×vessel length×clock hours×[…]. To quantitate the extent of lymphangiogenesis in WT and PDPN-deficient mice, corneas were stained with eFluor 570-anti-mouse LYVE-1 (clone ALY7, eBioScience, and 1:75) in 10% goat serum/0.2% Triton X-100/PBS overnight, 4° C. After several washes with 0.2% Triton X-100/PBS, the corneas were flattened and mounted with VECTASHIELD mounting medium (Vector Laboratories) and evaluated by fluorescence microscopy. In some examples, for comparisons, corneas were stained with Alexa Fluor® 488-anti-mouse CD31 (clone MEC13.3, 1:100, BioLegend) to visualize blood vessels.

## Gal-8: recombinant galectin-8, tandem-repeat type galectin with two different CRDs
[1]; VEGF-C 50 ng/ml plus 0.75 μM of Gal-8
  VEGF-C-induced LEC sprouting, times higher than VEGF-C alone or Gal-8 alone: 5 times
[1]; VEGF-C 50 ng/ml, 24 h
  effect on VEGF-C-induced LEC sprouting (in words): markedly enhanced
Mouse corneas; PDPN KO mice
  mean lymphatic vessel areas: 0.28 mm^2
Mouse corneas; WT mice
  mean lymphatic vessel areas: 0.78 mm^2
Mouse corneas; corneas implanted with both VEGF-C and Gal-8 pellets
  lymphatic vessel growth, times higher than either VEGF-C pellet or Gal-8 pellet alone: 2.2 times
Mouse corneas; one week after implantation, Gal-8 40-320 ng/pellet, VEGF-C 160 ng, WT or Prox1-EGFP mice
  lymphangiogenesis induced by pellet in cornea (in words): increased in a dose-dependent manner
Mouse corneas; two separate pellets (VEGF-C and Gal-8), Prox1-EGFP reporter mice, one week
  effect of Gal-8 pellet on VEGF-C-induced lymphangiogenesis in vivo (in words): augmented VEGF-C-induced lymphangiogenesis
